Source: patent US9296741B2, “Bromodomain inhibitors” (priority 2012, dated 2016)

Assays:
[1] = Human liver microsome stability assay; assay type: in vitro ADME; conditions: both sexes, human, microsomes, pH 7.4
[2] = molecular target: human BRD4 second bromodomain (BDII_E352-M457) (Homo sapiens (Human), UniProt O60885); experiment: TR-FRET bromodomain binding assay, BRD4 second bromodomain
[3] = Rat liver microsome stability assay; assay type: in vitro ADME; conditions: rat liver microsomes (male Sprague-Dawley), 0.5 μM test compound, 0.25 mg/mL microsomal protein, pH 7.4, 37° C.; read-out: Stability in rat liver microsomes (t1/2 in minutes)
[4] = molecular target: human BRD4 first bromodomain (BDI_K57-E168) (Homo sapiens (Human), UniProt O60885); experiment: TR-FRET bromodomain binding assay, BRD4 first bromodomain
[5] = tested on: breast cancer cell line MX-1; experiment: MX-1 cell line proliferation assay; assay type: cell-based, human; conditions: Homo sapiens, MX1, 72 h; MX-1 cells, 3-day proliferation, Cell Titer Glo; read-out: Cellular proliferation: EC50
[6] = Mouse liver microsome stability assay; assay type: in vitro ADME; conditions: male, CD1, mouse, microsomes, pH 7.4

Cn1cc(-c2cc(S(C)(=O)=O)ccc2Oc2ccc(F)cc2F)c2cc(CNc3nccs3)[nH]c2c1=O [Example 283, 4-[2-(2,4-difluorophenoxy)-5-(methylsulfonyl)phenyl]-6-methyl-2-[(1,3-thiazol-2-ylamino)methyl]-1,6-dihydro-7H-pyrrolo[2,3-c]pyridin-7-one]
half-life at 0.5 μM [1]: 7 min
Ki [2]: 34.6 nM
half-life at 0.5 μM [3]: 22 min
Ki [4]: 18.9 nM
EC50 [5]: 138 nM
half-life at 0.5 μM [6]: 12 min

Cn1cc(-c2cc(S(C)(=O)=O)ccc2Oc2ccc(F)cc2F)c2cc(CNC3CCOC3)[nH]c2c1=O (stereo not drawn) [Example 284, 4-[2-(2,4-difluorophenoxy)-5-(methylsulfonyl)phenyl]-6-methyl-2-[(tetrahydrofuran-3-ylamino)methyl]-1,6-dihydro-7H-pyrrolo[2,3-c]pyridin-7-one]
half-life at 0.5 μM [1]: 12 min
Ki [2]: 130 nM
half-life at 0.5 μM [3]: 108 min
Ki [4]: 18.3 nM
EC50 [5]: 131 nM
half-life at 0.5 μM [6]: > 120 min

Cn1cc(-c2cc(S(=O)(=O)c3ccccc3)ccc2OCC2CC2)c2cc[nH]c2c1=O [Example 285, 4-[2-(cyclopropylmethoxy)-5-(phenylsulfonyl)phenyl]-6-methyl-1,6-dihydro-7H-pyrrolo[2,3-c]pyridin-7-one]
half-life at 0.5 μM [1]: 19 min
Ki [2]: 7.5 nM
half-life at 0.5 μM [3]: 10 min
Ki [4]: 10.8 nM
EC50 [5]: 111 nM
half-life at 0.5 μM [6]: 12 min

Cn1cc(-c2cc(S(C)(=O)=O)ccc2Oc2ccc(F)cc2F)c2cc(COc3ccccc3)[nH]c2c1=O [Example 292, 4-[2-(2,4-difluorophenoxy)-5-(methylsulfonyl)phenyl]-6-methyl-2-(phenoxymethyl)-1,6-dihydro-7H-pyrrolo[2,3-c]pyridin-7-one]
half-life at 0.5 μM [1]: 8 min
Ki [2]: 55.8 nM
half-life at 0.5 μM [3]: 22 min
Ki [4]: 53.2 nM
EC50 [5]: 366 nM
half-life at 0.5 μM [6]: 12 min

Cn1cc(-c2cc(S(=O)(=O)N3CCOCC3)ccc2Oc2ccc(F)cc2F)c2cc[nH]c2c1=O [Example 293, 4-[2-(2,4-difluorophenoxy)-5-(morpholin-4-ylsulfonyl)phenyl]-6-methyl-1,6-dihydro-7H-pyrrolo[2,3-c]pyridin-7-one]
half-life at 0.5 μM [1]: 4 min
Ki [2]: 19.3 nM
half-life at 0.5 μM [3]: 9 min
Ki [4]: 180 nM
EC50 [5]: 381 nM
half-life at 0.5 μM [6]: 3 min

Cn1cc(-c2cc(NS(=O)(=O)CCN3CCOCC3)ccc2Oc2ccc(F)cc2F)c2cc[nH]c2c1=O [Example 295, N-[4-(2,4-difluorophenoxy)-3-(6-methyl-7-oxo-6,7-dihydro-1H-pyrrolo[2,3-c]pyridin-4-yl)phenyl]-2-(morpholin-4-yl)ethanesulfonamide]
half-life at 0.5 μM [1]: 7 min
Ki [2]: 30.7 nM
half-life at 0.5 μM [3]: 15 min
Ki [4]: 27.9 nM
EC50 [5]: 223 nM
half-life at 0.5 μM [6]: 3 min

CCS(=O)(=O)N(CCN(C)C)c1ccc(Oc2ccc(F)cc2F)c(-c2cn(C)c(=O)c3[nH]ccc23)c1 [Example 296, N-[4-(2,4-difluorophenoxy)-3-(6-methyl-7-oxo-6,7-dihydro-1H-pyrrolo[2,3-c]pyridin-4-yl)phenyl]-N-[2-(dimethylamino)ethyl]ethanesulfonamide]
half-life at 0.5 μM [1]: 7 min
Ki [2]: 101 nM
half-life at 0.5 μM [3]: 13 min
Ki [4]: 705 nM
EC50 [5]: 535 nM
half-life at 0.5 μM [6]: 6 min

CCS(=O)(=O)C(C)(C)c1ccc(Oc2ccc(F)cc2F)c(-c2cn(C)c(=O)c3[nH]ccc23)c1 [Example 298, 4-{2-(2,4-difluorophenoxy)-5-[2-(ethylsulfonyl)propan-2-yl]phenyl}-6-methyl-1,6-dihydro-7H-pyrrolo[2,3-c]pyridin-7-one]
half-life at 0.5 μM [1]: 9 min
Ki [2]: 3.1 nM
half-life at 0.5 μM [3]: 47 min
Ki [4]: 2.9 nM
EC50 [5]: 6.1 nM
half-life at 0.5 μM [6]: 3 min

CN(C)CCS(=O)(=O)Nc1ccc(Oc2ccc(F)cc2F)c(-c2cn(C)c(=O)c3[nH]ccc23)c1 [Example 300, N-[4-(2,4-difluorophenoxy)-3-(6-methyl-7-oxo-6,7-dihydro-1H-pyrrolo[2,3-c]pyridin-4-yl)phenyl]-2-(dimethylamino)ethanesulfonamide]
half-life at 0.5 μM [1]: 30 min
Ki [2]: 190 nM
half-life at 0.5 μM [3]: 21 min
Ki [4]: 389 nM
EC50 [5]: 176 nM
half-life at 0.5 μM [6]: 17 min

CCOC(=O)N1CCC(Oc2ccc(S(=O)(=O)CC)cc2-c2cn(C)c(=O)c3[nH]ccc23)CC1 [Example 301, ethyl 4-[4-(ethylsulfonyl)-2-(6-methyl-7-oxo-6,7-dihydro-1H-pyrrolo[2,3-c]pyridin-4-yl)phenoxy]piperidine-1-carboxylate]
half-life at 0.5 μM [1]: 20 min
Ki [2]: 15.5 nM
half-life at 0.5 μM [3]: 82 min
Ki [4]: 17.9 nM
EC50 [5]: 42.1 nM
half-life at 0.5 μM [6]: 13 min

Cn1cc(-c2cc(S(=O)(=O)N3CCCC3)ccc2OCC2CC2)c2cc[nH]c2c1=O [Example 302, 4-[2-(cyclopropylmethoxy)-5-(pyrrolidin-1-ylsulfonyl)phenyl]-6-methyl-1,6-dihydro-7H-pyrrolo[2,3-c]pyridin-7-one]
half-life at 0.5 μM [1]: 5 min
Ki [2]: 3.5 nM
half-life at 0.5 μM [3]: 4 min
Ki [4]: 5.8 nM
EC50 [5]: 16.9 nM
half-life at 0.5 μM [6]: 3 min

CCS(=O)(=O)c1ccc(OC2CCN(C(C)=O)CC2)c(-c2cn(C)c(=O)c3[nH]ccc23)c1 [Example 303, 4-{2-[(1-acetylpiperidin-4-yl)oxy]-5-(ethylsulfonyl)phenyl}-6-methyl-1,6-dihydro-7H-pyrrolo[2,3-c]pyridin-7-one]
half-life at 0.5 μM [1]: 42 min
Ki [2]: 7.1 nM
half-life at 0.5 μM [3]: 69 min
Ki [4]: 3.9 nM
EC50 [5]: 335 nM
half-life at 0.5 μM [6]: > 120 min

Cn1cc(-c2cc(S(=O)(=O)N3CCc4ccccc43)ccc2OCC2CC2)c2cc[nH]c2c1=O [Example 305, 4-[2-(cyclopropylmethoxy)-5-(2,3-dihydro-1H-indol-1-ylsulfonyl)phenyl]-6-methyl-1,6-dihydro-7H-pyrrolo[2,3-c]pyridin-7-one]
half-life at 0.5 μM [1]: 1 min
Ki [2]: 25.7 nM
half-life at 0.5 μM [3]: 2 min
Ki [4]: 327 nM
EC50 [5]: 110 nM
half-life at 0.5 μM [6]: 2 min

Cn1cc(-c2cc(CS(=O)(=O)c3ccccc3)ccc2Oc2ccc(F)cc2F)c2cc[nH]c2c1=O [Example 306, 4-{2-(2,4-difluorophenoxy)-5-[(phenylsulfonyl)methyl]phenyl}-6-methyl-1,6-dihydro-7H-pyrrolo[2,3-c]pyridin-7-one]
half-life at 0.5 μM [1]: 11 min
Ki [2]: 63.9 nM
half-life at 0.5 μM [3]: 9 min
Ki [4]: 82.2 nM
EC50 [5]: 51.6 nM
half-life at 0.5 μM [6]: 3 min

Cn1cc(-c2cc(S(=O)(=O)N3CCCC3)ccc2OCC2CC2(F)F)c2cc[nH]c2c1=O (stereo not drawn) [Example 307, 4-{2-[(2,2-difluorocyclopropyl)methoxy]-5-(pyrrolidin-1-ylsulfonyl)phenyl}-6-methyl-1,6-dihydro-7H-pyrrolo[2,3-c]pyridin-7-one]
half-life at 0.5 μM [1]: 3 min
Ki [2]: 2.9 nM
half-life at 0.5 μM [3]: 3 min
Ki [4]: 2.4 nM
EC50 [5]: 122 nM
half-life at 0.5 μM [6]: 2 min

Cn1cc(-c2cc(S(C)(=O)=O)ccc2Oc2ccccc2CCO)c2cc[nH]c2c1=O [Example 309, 4-{2-[2-(2-hydroxyethyl)phenoxy]-5-(methylsulfonyl)phenyl}-6-methyl-1,6-dihydro-7H-pyrrolo[2,3-c]pyridin-7-one]
half-life at 0.5 μM [1]: > 120 min
Ki [2]: 16.9 nM
half-life at 0.5 μM [3]: > 120 min
Ki [4]: 30.6 nM
EC50 [5]: 85.9 nM
half-life at 0.5 μM [6]: > 120 min

CN(C)C1CCN(S(=O)(=O)c2ccc(OCC3CC3)c(-c3cn(C)c(=O)c4[nH]ccc34)c2)C1 (stereo not drawn) [Example 310, 4-[2-(cyclopropylmethoxy)-5-{[3-(dimethylamino)pyrrolidin-1-yl]sulfonyl}phenyl]-6-methyl-1,6-dihydro-7H-pyrrolo[2,3-c]pyridin-7-one]
half-life at 0.5 μM [1]: 8 min
Ki [2]: 71.1 nM
half-life at 0.5 μM [3]: 5 min
Ki [4]: 40.9 nM
EC50 [5]: 103 nM
half-life at 0.5 μM [6]: 9 min

CCS(=O)(=O)c1ccc(OC2CCN(C(=O)OC(C)(C)C)CC2)c(-c2cn(C)c(=O)c3[nH]ccc23)c1 [Example 312, tert-butyl 4-[4-(ethylsulfonyl)-2-(6-methyl-7-oxo-6,7-dihydro-1H-pyrrolo[2,3-c]pyridin-4-yl)phenoxy]piperidine-1-carboxylate]
half-life at 0.5 μM [1]: 56 min
Ki [2]: 19 nM
half-life at 0.5 μM [3]: 32 min
Ki [4]: 14.1 nM
EC50 [5]: 67.5 nM
half-life at 0.5 μM [6]: 9 min

Cn1cc(-c2cc(S(=O)(=O)Nc3ccccc3)ccc2OCC2CC2)c2cc[nH]c2c1=O [Example 313, 4-(cyclopropylmethoxy)-3-(6-methyl-7-oxo-6,7-dihydro-1H-pyrrolo[2,3-c]pyridin-4-yl)-N-phenylbenzenesulfonamide]
half-life at 0.5 μM [1]: 5 min
Ki [2]: 6.1 nM
half-life at 0.5 μM [3]: 4 min
Ki [4]: 15.8 nM
EC50 [5]: 50.9 nM
half-life at 0.5 μM [6]: 3 min

Cn1cc(-c2cc(-c3cccnc3)ccc2OCC2CC2)c2cc[nH]c2c1=O [Example 315, 4-[2-(cyclopropylmethoxy)-5-(pyridin-3-yl)phenyl]-6-methyl-1,6-dihydro-7H-pyrrolo[2,3-c]pyridin-7-one]
half-life at 0.5 μM [1]: 34 min
Ki [2]: 231 nM
half-life at 0.5 μM [3]: 4 min
Ki [4]: 37.6 nM
EC50 [5]: 160 nM
half-life at 0.5 μM [6]: 11 min
